Reference: US20220132846A1, “1-PYRIDYL-PYRAZOLYL AMIDE COMPOUNDS AND PREPARATION AND USES THEREOF” (HUNAN RESEARCH INSTITUTE OF CHEMICAL INDUSTRY CO., LTD., priority 2019, published 2022)

Experiments:
[1] = tested on: Armyworm (Mythimna separata (Walker)); test: Test against armyworm, Potter tower method; format: in vivo; settings: for mortality at 12.5 µg/mL / mortality at 50 µg/mL / mortality at 500 µg/mL: Mythimna separata, third-instar larvae, after 72 hours, read-out: Activity (mortality) level against armyworm; for mortality at 12.5 µg/mL: 12.5 mg/L; for mortality at 50 µg/mL: 50 mg/L; for mortality at 500 µg/mL: 500 mg/L
Method: Potter tower method: the test compound was dissolved in an appropriate solvent such as N,N-dimethylformamide, and then diluted with 0.2% aqueous solution of Tween 80 to the desired concentration, Those without the test compounds were set as blank controls. The fresh and tender corn leaves were taken and cut into fragments of basically the same size, then put into a Petri dish (diameter 90 mm) padded with filter paper in advance. Ten third-instar larvae of test insects were transferred into the dish and then placed under the Potter spray tower for being sprayed, each concentration treatment was sprayed at the amount of 1 mL and replicated 3 times. The dish was covered and then placed in a chamber for culture and observed regularly, after 72 hours, the dead insects was investigated and recorded and the mean mortality was calculated. […]

Aphis fabae = test: Test against aphid, leaf dip method (Aphis fabae); format: in vivo; settings: foliar, after 24 hours, read-out: Activity (mortality) level against Aphis fabae; for mortality at 12.5 µg/mL: 12.5 mg/L; for mortality at 50 µg/mL: 50 mg/L; for mortality at 200 µg/mL: 200 mg/L; for mortality at 500 µg/mL: 500 mg/L
Method: For evaluating the activity of the compounds of this invention against Homoptera pests, Aphis fabae, wheat aphids, etc. were selected as the test insects, and the activity of the compounds of this invention against aphids was measured by leaf dip method indoors.
Leaf dip method (Aphis fabae): the test compound was dissolved in an appropriate solvent such as N,N-dimethylformamide, and then diluted with 0.2% aqueous solution of Tween 80 to the desired concentration, Those without the test compounds were set as blank controls, the treatments were replicated 3 times. Horsebean seedlings with no less than twenty 3-day-old Aphis fabae per plant was cut from the stem, 5 horsebean seedlings with the insects were dipped in the test solution for 5 seconds, then inserted into a sponge filled with water after sucked dry using filter paper, then covered with a glass tube and placed in a chamber for culture. After 24 hours, the number of living and dead insects were investigated and the results were averaged. […]

| SMILES | mortality at 12.5 µg/mL [1] [%] | mortality at 50 µg/mL [1] [%] | mortality at 500 µg/mL [1] [%] | Activity against armyworm, further screening (in words) ([1]; compared with chlorantraniliprole (D1)) | mortality at 12.5 µg/mL (Aphis fabae) [%] | mortality at 50 µg/mL (Aphis fabae) [%] | mortality at 200 µg/mL (Aphis fabae) [%] | mortality at 500 µg/mL (Aphis fabae) [%] |
| --- | --- | --- | --- | --- | --- | --- | --- | --- |
| CCN(CC)C(=O)c1cc(Cl)cc(Br)c1N(CC)C(=O)c1cc(Br)nn1-c1ncccc1Cl [Compound 40, N-[2-bromo-4-chloro-6-[(diethylamino)carbonyl]phenyl]-N-ethyl-1-(3-chloro-2-pyridinyl)-3-bromo-1H-pyrazole-5-carboxamide] | 90 to 100 | 90 to 100 | 90 to 100 | excellent activity | 90 to 100 | 90 to 100 | 90 to 100 | 90 to 100 |
| CCCN(C(=O)c1cc(Br)nn1-c1ncccc1Cl)c1c(Br)cc(Cl)cc1C(=O)N(C)C [Compound 41, N-[2-bromo-4-chloro-6-[(dimethylamino)carbonyl]phenyl]-N-propyl-1-(3-chloro-2-pyridinyl)-3-bromo-1H-pyrazole-5-carboxamide] | – | 90 to 100 | 90 to 100 | – | 90 to 100 | 90 to 100 | 90 to 100 | 90 to 100 |
| CNC(=O)c1cc(Cl)cc(C)c1N(C)C(=O)c1cc(Br)nn1-c1ncccc1Cl [Compound 42, N-[2-methyl-4-chloro-6-[(methylamino)carbonyl]phenyl]-N-methyl-1-(3-chloro-2-pyridinyl)-3-bromo-1H-pyrazole-5-carboxamide] | 90 to 100 | 90 to 100 | 90 to 100 | – | 90 to 100 | 90 to 100 | 90 to 100 | 90 to 100 |
| CCNC(=O)c1cc(Cl)cc(C)c1N(C)C(=O)c1cc(Br)nn1-c1ncccc1Cl [Compound 43, N-[2-methyl-4-chloro-6-[(ethylamino)carbonyl]phenyl]-N-methyl-1-(3-chloro-2-pyridinyl)-3-bromo-1H-pyrazole-5-carboxamide] | – | 90 to 100 | 90 to 100 | – | – | – | – | 90 to 100 |
| Cc1cc(Cl)cc(C(=O)N(C)C)c1N(C)C(=O)c1cc(Br)nn1-c1ncccc1Cl [Compound 44, N-[2-methyl-4-chloro-6-[(dimethylamino)carbonyl]phenyl]-N-methyl-1-(3-chloro-2-pyridinyl)-3-bromo-1H-pyrazole-5-carboxamide] | – | 90 to 100 | 90 to 100 | – | – | – | – | 90 to 100 |
| CCN(C)C(=O)c1cc(Cl)cc(C)c1N(C)C(=O)c1cc(Br)nn1-c1ncccc1Cl [Compound 45, N-[2-methyl-4-chloro-6-[(methyl(ethyl)amino)carbonyl]phenyl]-N-methyl-1-(3-chloro-2-pyridinyl)-3-bromo-1H-pyrazole-5-carboxamide] | – | – | 90 to 100 | – | – | – | – | 90 to 100 |
| CCCN(C)C(=O)c1cc(Cl)cc(C)c1N(C)C(=O)c1cc(Br)nn1-c1ncccc1Cl [Compound 46, N-[2-methyl-4-chloro-6-[(methyl(propyl)amino)carbonyl]phenyl]-N-methyl-1-(3-chloro-2-pyridinyl)-3-bromo-1H-pyrazole-5-carboxamide] | – | 90 to 100 | 90 to 100 | – | – | – | 90 to 100 | 90 to 100 |
| Cc1cc(Cl)cc(C(=S)N(C)C)c1N(C)C(=O)c1cc(Br)nn1-c1ncccc1Cl [Compound 47, N-[2-methyl-4-chloro-6-[(dimethylamino)thioxomethyl]phenyl]-N-methyl-1-(3-chloro-2-pyridinyl)-3-bromo-1H-pyrazole-5-carboxamide] | – | 90 to 100 | 90 to 100 | – | 90 to 100 | 90 to 100 | 90 to 100 | 90 to 100 |
| CCN(CC)C(=O)c1cc(Br)cc(C)c1N(C)C(=O)c1cc(Br)nn1-c1ncccc1Cl [Compound 48, N-[2-methyl-4-bromo-6-[(diethylamino)carbonyl]phenyl]-N-methyl-1-(3-chloro-2-pyridinyl)-3-bromo-1H-pyrazole-5-carboxamide] | – | 90 to 100 | 90 to 100 | – | – | – | – | 90 to 100 |
